Reference: patent US20240270810A1, “PREPARATION AND APPLICATION OF POLYPEPTIDE” (GUANGDONG RAYNOVENT BIOTECH CO., LTD., priority 2021, published 2024)

Legend:
GLP-1R = target: T1, GLP-1R (Homo sapiens, UniProt P43220); assay: In vitro GLP-1R agonistic activity test (cAMP kit); format: cell-based; details: HEK293 host cells
T1 construct: host or cells: HEK293
Procedure: The cell lines were constructed by Wuxi […] (Shanghai) Co., Ltd. See details in Table 1 below. [table] [table] The test compounds were diluted at a 4-fold dilution factor in 10 points, starting from an initial concentration of 30 μM. The dilution was carried out by Bravo. • 1) 100 nL of compounds were transferred to an OptiPlate-384 plate by Echo. • 2) The OptiPlate-384 plate was centrifuged at 1000 rpm for 5 s. • 1) A GLP-1R/GIPR cell cryovial was placed in warm water at 37° C. for rapid thawing. • 2) The cell suspension was transferred into a 15 mL Transfer centrifugal tube and rinsed with 10 mL of HBSS gently. • 3) The centrifugal tube was centrifuged at 1000 rpm at room temperature for 1 min. • 4) The supernatant was discarded. • 5) The bottom cells were gently dispersed, then gently rinsed with 10 mL of HBSS, the centrifugal tube was centrifuged to settle the cells, and finally the cells were resuspended in an experimental buffer. • 6) Cell density and viability were measured by Vi-cell. • 7) The GLP-1R/GIPR cells were diluted with the experimental buffer to a concentration of 2.0*10^5/mL. • 8) […] of the diluted cell suspension was transferred into the OptiPlate-384 plate. • 9) Incubation was performed at room temperature for 30 min. • 1) 10 μL of 800 nM gradient diluted cAMP standard was added into the empty wells of the OptiPlate-384 plate. • 2) 10 μL of cAMP assay reagent was added. • 3) The OptiPlate-384 plate was covered with TopSeal-A film and incubated at room temperature for 60 min. The TopSeal-A film was removed, and readout was performed on En Vision.

in vivo [1] = assay: in vivo; design: species or system SD rats; details: rat, sc, 0.048 mg/kg; for Cmax: Sprague-Dawley
Procedure: The pharmacokinetic characteristics in rodent animals following subcutaneous injection of the compounds were tested using standard protocols. In the experiment, the candidate compounds were formulated into clear solution, which was administered to rats by single subcutaneous injection (SC, 0.048 mpk). The vehicle for injection was citrate buffer solution (20 mM, pH=7). The whole blood was collected and processed to get the plasma. The drug concentration was analyzed by LC-MS/MS, and the pharmacokinetic parameters were calculated using Phoenix WinNonlin software.

in vivo [2] = assay: in vivo; design: species or system C57BL/6 mice; details: sc, 0.048 mg/kg
Procedure: The pharmacokinetic characteristics in rodent animals following subcutaneous injection of the compounds were tested using standard protocols. In the experiment, the candidate compounds were formulated into clear solution, which was administered by subcutaneous injection (SC, 0.048 mpk). The vehicle for subcutaneous injection was citrate buffer solution (20 mM, pH=7). The whole blood was collected and processed to get the plasma. The drug concentration was analyzed by LC-MS/MS, and the pharmacokinetic parameters were calculated using Phoenix WinNonlin software.

in vivo [3] = assay: in vivo; design: species or system Cynomolgus macaques; details: cynomolgus monkey, sc, 0.02 mg/kg
Procedure: The pharmacokinetic characteristics in mammals following intravenous injection and subcutaneous injection of the compounds were tested using standard protocols. In the experiment, the candidate compounds were formulated into clear solution, which was administered to Cynomolgus macaques by single subcutaneous injection (SC, 0.02 mpk). The vehicle for subcutaneous injection was citrate buffer solution (20 mM, pH=7). The whole blood was collected and processed to get the plasma. The drug concentration was analyzed by LC-MS/MS, and the pharmacokinetic parameters were calculated using Phoenix WinNonlin software.

in vitro = in vitro ADME; details: mouse, plasma
Procedure: To study the stability of the test compounds in the plasma of normal mice. • 1. Before the experiment, the clotted frozen plasma was thawed in a water bath at 37° C. The resulting plasma was centrifuged at 4000 rpm for 5 min. If there is blood clot, remove the clot and adjust the pH to 7.4±0.1. • 2. The test compound solution was prepared by diluting the compounds with DMSO to prepare a solution of 100 μM. • 3. 98 μL of plasma, as a blank control, was added with 2 μL of the test compound solution (100 μM) to get a mixed solution with a final concentration of 2 μM, which was incubated in a water bath at 37° C. • 4. 100 μL of H3PO4 solution and 800 μL of stop solution (a 100% solution of 200 ng/mL tolbutamide and 200 ng/ml labetalol in methanol) were respectively added at each time point (0, 10, 30, 60, and 120 min) to precipitate protein, which was then mixed thoroughly. • 5. The samples were centrifuged at 4000 rpm for 20 min, and 100 μL of supernatant was taken from each well for LC-MS/MS analysis.

T1 sequence (P43220 24-463, species assumed): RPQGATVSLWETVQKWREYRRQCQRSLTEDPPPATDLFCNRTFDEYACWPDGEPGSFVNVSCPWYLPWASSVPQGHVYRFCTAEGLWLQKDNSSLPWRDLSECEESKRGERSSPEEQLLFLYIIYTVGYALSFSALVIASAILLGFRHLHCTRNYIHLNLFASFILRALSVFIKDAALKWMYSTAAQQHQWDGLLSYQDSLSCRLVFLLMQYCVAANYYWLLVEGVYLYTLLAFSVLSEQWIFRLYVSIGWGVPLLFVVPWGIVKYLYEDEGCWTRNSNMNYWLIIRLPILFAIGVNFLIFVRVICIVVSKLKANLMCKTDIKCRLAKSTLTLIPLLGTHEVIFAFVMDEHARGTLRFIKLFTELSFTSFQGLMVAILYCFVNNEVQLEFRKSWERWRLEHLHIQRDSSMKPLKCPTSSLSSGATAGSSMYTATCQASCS

EC50 (GLP-1R; with 1% HSA) | EC50 (GLP-1R; without 1% HSA) | Cmax (in vivo [1]) | AUC(0-t) (in vivo [1]) | Tmax (in vivo [1]) | half-life (in vivo [1]) | Cmax (in vivo [2]; C57BL/6, mouse) | AUC(0-t) (in vivo [2]; mouse) | Tmax (in vivo [2]; mouse) | half-life (in vivo [2]; mouse) | AUC(0-t) (in vivo [3]) | Cmax (in vivo [3]) | Tmax (in vivo [3]) | half-life (in vivo [3]) | half-life (in vitro) | Tmax (in vivo [1]; SD) | Tmax (in vivo [2]; C57BL/6, mouse) | half-life at 2 μM (in vitro; pH 7.4) | SMILES
7.63 nM | 0.036 nM | 28 nM | 1.15 µM·h | 16 h | 21 h | 79 nM | 2.24 µM·h | 12 h | 16 h | 4.47 µM·h | 36 nM | 24 h | 100 h | > 4.82 h |  |  |  | CC[C@H](C)[C@H](NC(=O)[C@H](CC(C)C)NC(=O)[C@H](Cc1c[nH]c2ccccc12)NC(=O)[C@H](CCC(=O)O)NC(=O)[C@@H](NC(=O)[C@H](Cc1ccccc1)NC(=O)[C@H](C)NC(=O)[C@@H]1CCCCNC(=O)CN(C(=O)COCCOCCNC(=O)COCCOCCNC(=O)CC[C@H](NC(=O)CCCCCCCCCCCCCCCCCCC(=O)O)C(=O)O)CC(=O)NCCCC[C@H](NC(=O)[C@H](CCCCN)NC(=O)[C@H](CC(=O)O)NC(=O)[C@H](CC(C)C)NC(=O)C(C)(C)NC(=O)[C@@H](NC(=O)[C@H](CO)NC(=O)[C@H](Cc2ccc(O)cc2)NC(=O)[C@H](CC(=O)O)NC(=O)[C@H](CO)NC(=O)[C@@H](NC(=O)[C@H](Cc2ccccc2)NC(=O)[C@@H](NC(=O)CNC(=O)[C@H](CCC(=O)O)NC(=O)C(C)(C)NC(=O)[C@@H](N)Cc2ccc(O)cc2)[C@@H](C)O)[C@@H](C)O)[C@@H](C)CC)C(=O)N[C@@H](C)C(=O)N[C@@H](CCC(N)=O)C(=O)N1)C(C)C)C(=O)N[C@@H](C)C(=O)NCC(=O)NCC(=O)N1CCC[C@H]1C(=O)N[C@@H](CO)C(=O)N[C@@H](CO)C(=O)NCC(=O)N[C@@H](C)C(=O)N1CCC[C@H]1C(=O)N1CCC[C@H]1C(=O)N1CCC[C@H]1C(=O)N[C@@H](CO)C(N)=O [WX-005]
 | 0.014 nM | 24 nM |  |  |  | 59 nM |  |  |  |  | 37 nM | 24 h |  |  | 20 h | 12 h | > 3.98 h | CC[C@H](C)[C@H](NC(=O)[C@H](CC(C)C)NC(=O)[C@H](Cc1c[nH]c2ccccc12)NC(=O)[C@H](CCC(=O)O)NC(=O)[C@@H](NC(=O)[C@H](Cc1ccccc1)NC(=O)[C@H](CCC(=O)O)NC(=O)[C@@H]1CCCCNC(=O)CN(C(=O)COCCOCCNC(=O)COCCOCCNC(=O)CC[C@H](NC(=O)CCCCCCCCCCCCCCCCCCC(=O)O)C(=O)O)CC(=O)NCCCC[C@H](NC(=O)[C@H](CCCCN)NC(=O)[C@H](CC(=O)O)NC(=O)[C@H](CC(C)C)NC(=O)C(C)(C)NC(=O)[C@@H](NC(=O)[C@H](CO)NC(=O)[C@H](Cc2ccc(O)cc2)NC(=O)[C@H](CC(=O)O)NC(=O)[C@H](CO)NC(=O)[C@@H](NC(=O)[C@H](Cc2ccccc2)NC(=O)[C@@H](NC(=O)CNC(=O)[C@H](CCC(=O)O)NC(=O)C(C)(C)NC(=O)[C@@H](N)Cc2ccc(O)cc2)[C@@H](C)O)[C@@H](C)O)[C@@H](C)CC)C(=O)N[C@@H](C)C(=O)N[C@@H](CCC(N)=O)C(=O)N1)C(C)C)C(=O)N[C@@H](C)C(=O)NCC(=O)NCC(=O)N1CCC[C@H]1C(=O)N[C@@H](CO)C(=O)N[C@@H](CO)C(=O)NCC(=O)N[C@@H](C)C(=O)N1CCC[C@H]1C(=O)N1CCC[C@H]1C(=O)N1CCC[C@H]1C(=O)N[C@@H](CO)C(N)=O [WX-009]
